In patent US20150299238A1, “SYNTHESIS AND USE OF PRODRUG COMPLEXES OF COBALT IN POLYMER THERAPEUTICS” (priority 2014, published 2015):
“Also recorded” adds a separate entry of the source.

What was measured:
SNU-5 cells = assay: Nanoparticle uptake by image-based flow cytometry; assay type: cell-based; settings: for High uptake (red), percentage of cells / Low uptake (blue), percentage of cells / No uptake (green), percentage of cells: SNU-5, 8 h incubation, 100 μg/mL
Method: An Amnis FlowSight image-based flow cytometer equipped with a 488 nm (60 mW) and Side Scatter (7.85 mW) (EMD Millipore; Seattle, Wash.) was used to analyze cell samples. The FlowSight uses a CCD camera system to simultaneously collect both quantitative fluorescence and image data. For uptake studies, SNU-5 cells were incubated with Co-Alb-FITC NPs in the presence or absence of a commonly used inhibitor of macropinocytosis, 5-(N-ethyl-N-isopropyl)amiloride (EIPA), followed by fixation, and analysis via image-based flow cytometry.
SNU-5 cells were cultured at 37° C. and 5% CO2 in IMDM medium supplemented with 20% fetal bovine serum at cell densities between 1×10^5 and 1×10^6 cells/mL, and Jurkat cells were cultured at 37° C. and 5% CO2 in RPMI-1640 medium supplemented with 10% fetal bovine serum at cell densities between 1×10^5 and 1×10^6 cells/mL. For nanoparticle uptake experiments, cells were transferred to serum-starved IMDM or RPMI-1640 medium (0.1% FBS) and incubated at 37° C. and 5% CO2 for 10-16 h prior to dosing with nanoparticles. Cells (2 mL, 500,000 cells/mL) were incubated with the desired nanoparticle or control particle solution (100 μg/mL) with or without added EIPA for the times indicated. Cells were then washed twice with PBS, fixed for 12 min in 3.7% formaldehyde in PBS, washed twice with PBS, stained with NucBlue® Fixed Cell ReadyProbes® Reagent, and then washed twice more with PBS. Samples were either analyzed immediately or stored at 4° C. in the dark until analysis.

[1] = Analysis of PEGylation reaction by DLS, ethanolamine challenge of the Co linkage; assay type: physicochemical
Method: While sonicating (Branson, model #2510), human transferrin (0.5 mL of a 1 mg/mL aqueous solution, Sigma-Aldrich, cat. #T0665-50MG, lot #SLBC […]) was added. The solution had no discernible color and was allowed to stand undisturbed for 15 min. Dynamic light scattering (DLS, Microtrac Nanotrac Ultra) was used to measure particle size where the volume average particle size was 13.6 nm (standard deviation=4.2 nm). Hydrogen peroxide (20 μL of a 30% solution, Mallinckrodt AR, cat. #5240, lot #5240Y23470) was added while sonicating and the solution was thoroughly mixed by pipetting. The solution became faintly yellow but with no turbity. The solution was allowed to stand undisturbed for 30 min. Analysis of PEGylation reaction by DLS. The average diameter of both human transferrin (6.8 nm, SD=1.8 nm) and H2N-PEG-COOH (4.8 nm, SD=1.2 nm) were measured by DLS (FIG. 5). […] Addition of ethanolamine (50 mM) at this point led to a decrease in particle size back to 6.4 nm (SD=2.0) thereby degrading the prodrug linkage due to facile exchange of the Co amino ligands.

Q: Which “Cell viability in the uptake experiment” value (SNU-5 cells; SNU-5, 100 μM EIPA) does the source give for `CCN(c1nc(N)c(C(=O)N=C(N)N)nc1Cl)C(C)C` [EIPA, 5-(N-ethyl-N-isopropyl)amiloride] here?
A: Its value is “slight decrease in cell viability”.

Q: And the “Effect on uptake of Co-Alb-FITC NPs” value (SNU-5 cells; SNU-5, pre-incubation with inhibitor)?
A: Its value is “dramatic reduction in particle uptake; also recorded: reduce uptake in a dose-dependent manner”.

Q: What about the “Inhibitory effect on uptake over time” value (SNU-5 cells; SNU-5, uptake of Co-Alb-FITC NPs) of the same molecule?
A: The value was “remained relatively constant over 8 h, but became greatly diminished at 24 h”.

Q: With FITC-Alb only as the molecule, how does the “High uptake (red), percentage of cells” value (SNU-5 cells; EIPA 0 μM) read?
A: The value was 13.9%.

Q: What about the “Low uptake (blue), percentage of cells” value (SNU-5 cells; EIPA 0 μM) of the same molecule?
A: The value was 45.4%.

Q: And the “No uptake (green), percentage of cells” value (SNU-5 cells; EIPA 0 μM)?
A: The value was 40.6%.

Q: And the “High uptake (red), percentage of cells” value (SNU-5 cells; EIPA 75 μM)?
A: Its value is 16.9%.

Q: And the “Low uptake (blue), percentage of cells” value (SNU-5 cells; EIPA 75 μM)?
A: The value was 11.8%.

Q: And the “No uptake (green), percentage of cells” value (SNU-5 cells; EIPA 75 μM)?
A: The value was 71.3%.

Q: And the “Uptake in the presence of EIPA” value (SNU-5 cells; SNU-5, free protein 100 μg/mL, no NPs)?
A: Its value is “reduction in uptake”.

Q: Which “Particle size after addition of ethanolamine” value ([1]; ethanolamine 50 mM, not oxidized (Co(II))) does the source give for transferrin-PEG conjugate here?
A: The value was 6.4 nm.

Q: And the “Average diameter after addition of ethanolamine” value ([1]; oxidized 30 min with H2O2 (Co(III)) before ethanolamine)?
A: The value was 18.3 nm.
